Assay results as given in the supplement of paper PMC10307832.

Columns and labels:
Assay in all cases: relative viability (nuclei count vs DMSO), 5 days (fraction); higher = more cells survive
[1] = compound: COc1cc(Nc2ncc(F)c(Nc3ccc4c(n3)NC(=O)C(C)(C)O4)n2)cc(OC)c1OC [R406] + CS(=O)(=O)N1CCN(Cc2cc3nc(-c4cccc5[nH]ncc45)nc(N4CCOCC4)c3s2)CC1 [Pictilisib] (partner 1 µM)
Procedure, shortened: (§1)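 Lung cancer cell lines in 1536-well plates were dosed by pin tool the day after seeding, either with one drug alone or with a fixed anchor-drug dose plus five library-drug doses (not always all listed) in √10 steps. After 5 days, cells were fixed and their nuclei stained in one step (final 0.05% Triton X-100, 1% formaldehyde, 1 ug/ml Hoechst), then counted on 4× images. Relative viability is the nuclei count in treated wells divided by that in vehicle wells. Values are medians of duplicate plates.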

[2] = compound: COc1cc(Nc2ncc(F)c(Nc3ccc4c(n3)NC(=O)C(C)(C)O4)n2)cc(OC)c1OC [R406] + COc1cccc2cc(-c3nc([C@H]4CC[C@H](C(=O)O)CC4)n4ncnc(N)c34)[nH]c12 [OSI-027] (partner 0.5 µM)
Procedure, shortened: as §1

[3] = compound: COc1cc(Nc2ncc(F)c(Nc3ccc4c(n3)NC(=O)C(C)(C)O4)n2)cc(OC)c1OC [R406] + Cc1cc(Nc2cc(N3CCN(C)CC3)nc(Sc3ccc(NC(=O)C4CC4)cc3)n2)n[nH]1 [Tozasertib] (partner 0.1 µM)
Procedure, shortened: as §1

[4] = compound: COc1cc(Nc2ncc(F)c(Nc3ccc4c(n3)NC(=O)C(C)(C)O4)n2)cc(OC)c1OC [R406] + C[C@]1(O)C[C@@H](c2nc(-c3ccc4ccc(-c5ccccc5)nc4c3)c3c(N)nccn32)C1 [Linsitinib] (partner 1 µM)
Procedure, shortened: as §1

Row | Cell Line | relative viability ([1]; first compound 0.08 µM) | relative viability ([1]; first compound 0.253 µM) | relative viability ([1]; first compound 0.8 µM) | relative viability ([1]; first compound 2.53 µM) | relative viability ([1]; first compound 8 µM) | relative viability ([2]; first compound 0.08 µM) | relative viability ([2]; first compound 0.253 µM) | relative viability ([2]; first compound 0.8 µM) | relative viability ([2]; first compound 2.53 µM) | relative viability ([2]; first compound 8 µM) | relative viability ([3]; first compound 0.08 µM) | relative viability ([3]; first compound 0.253 µM) | relative viability ([3]; first compound 0.8 µM) | relative viability ([3]; first compound 2.53 µM) | relative viability ([3]; first compound 8 µM) | relative viability ([4]; first compound 0.08 µM) | relative viability ([4]; first compound 0.253 µM) | relative viability ([4]; first compound 0.8 µM) | relative viability ([4]; first compound 2.53 µM) | relative viability ([4]; first compound 8 µM)
1 | HCC-78 | 0.233 | 0.219 | 0.259 | 0.173 | 0.185 | 0.335 | 0.385 | 0.397 | 0.386 | 0.323 | 0.513 | 0.432 | 0.563 | 0.404 | 0.417 | 0.534 | 0.394 | 0.544 | 0.489 | 0.25
2 | HCC-366 | 0.128 | 0.163 | 0.141 | 0.113 | 0.122 | 0.938 | 1.02 | 1.04 | 0.0426 | 0.117 | 0.101 | 0.0718 | 0.133 | 0.0575 | 0.0313 | 0.676 | 0.776 | 0.87 |  | 0.0785
3 | HCC-827 | 0.944 | 0.735 | 1.11 | 0.687 | 0.862 | 0.771 | 0.778 | 0.826 | 0.611 | 0.507 | 0.421 | 0.463 | 0.45 | 0.386 | 0.233 | 0.975 | 0.929 | 0.937 | 0.886 | 0.477
4 | HOP-62 | 0.643 | 0.846 | 0.863 | 0.467 | 0.488 | 0.774 | 0.958 | 0.854 | 0.64 | 0.654 | 0.356 | 0.456 | 0.362 | 0.366 | 0.554 | 0.773 | 0.97 | 0.936 | 0.684 | 0.865
5 | IA-LM | 0.443 | 0.475 | 0.359 | 0.409 | 0.264 |  |  |  |  |  |  |  |  |  |  | 0.746 | 0.901 | 0.921 | 1.01 | 0.887
6 | LC-2-ad | 0.554 | 0.309 | 0.596 | 0.12 | 0.0919 | 0.872 | 0.878 | 0.838 | 0.504 | 0.34 | 0.509 | 0.482 | 0.368 | 0.422 | 0.351 | 0.828 | 0.832 | 0.729 | 0.385 | 0.158
7 | LCLC-97TM1 | 0.174 | 0.172 | 0.218 | 0.133 | 0.148 | 0.461 | 0.586 | 0.618 | 0.221 | 0.215 | 0.217 | 0.318 | 0.209 | 0.216 | 0.226 | 0.192 | 0.191 | 0.218 | 0.172 | 0.182
8 | LCLC-103H | 0.462 | 0.636 | 0.595 | 0.403 | 0.356 | 0.419 | 0.453 | 0.536 | 0.362 | 0.331 | 0.524 | 0.495 | 0.569 | 0.503 | 0.376 | 1.04 | 1.2 | 0.976 | 1.14 | 0.792
9 | LK-2 | 0.462 | 0.637 | 0.427 | 0.462 | 0.304 | 0.218 | 0.215 | 0.186 | 0.149 | 0.146 | 0.17 | 0.163 | 0.166 | 0.182 | 0.186 | 0.513 | 0.573 | 0.641 | 0.379 | 0.11
10 | LOU-NH91 | 0.524 | 0.526 | 0.46 | 0.405 | 0.414 | 0.728 | 0.714 | 0.651 | 0.448 | 0.429 | 0.723 | 0.764 | 0.644 | 0.472 | 0.466 | 0.992 | 0.882 | 0.982 | 0.602 | 0.521
11 | NCI-H522 |  |  |  |  |  | 0.681 | 0.742 | 0.954 | 0.501 | 0.593 | 0.467 | 0.527 | 0.562 | 0.582 | 0.433 |  |  |  |  | 
12 | NCI-H1299 | 0.791 | 0.816 | 0.874 | 0.427 | 0.162 |  |  |  |  |  |  |  |  |  |  | 0.979 | 1.09 | 1.13 | 0.93 | 0.496
13 | NCI-H1563 | 0.678 | 0.656 | 0.726 | 0.594 | 0.492 | 0.736 | 0.734 | 0.831 | 0.638 | 0.543 |  |  |  |  |  | 1.12 | 1.31 | 1.29 | 1.2 | 1.16
14 | NCI-H1623 |  |  |  |  |  | 0.408 | 0.429 | 0.398 | 0.411 | 0.43 | 0.447 | 0.419 | 0.442 | 0.429 | 0.401 |  |  |  |  | 
15 | NCI-H1648 |  |  |  |  |  |  |  | 0.255 | 0.249 | 0.28 |  |  | 0.498 | 0.608 | 0.639 |  |  |  |  | 
16 | NCI-H1650 | 0.645 | 0.668 | 0.652 | 0.148 | 0.122 | 0.719 | 0.644 | 0.637 | 0.132 | 0.137 | 0.394 | 0.449 | 0.461 | 0.164 | 0.185 |  |  |  |  | 
17 | NCI-H1703 | 0.229 | 0.207 | 0.278 | 0.214 | 0.187 |  |  |  |  |  |  |  |  |  |  | 0.742 | 0.859 | 0.695 | 0.186 | 0.139
18 | NCI-H1792 | 0.264 | 0.193 | 0.302 | 0.161 | 0.164 | 0.642 | 0.772 | 0.784 | 0.37 | 0.378 |  |  |  |  |  | 0.484 | 0.387 | 0.744 | 0.411 | 0.505
19 | NCI-H2170 | 0.307 | 0.269 | 0.302 | 0.194 | 0.24 | 0.734 | 0.654 | 0.688 | 0.415 | 0.648 | 0.758 | 0.703 | 0.708 | 0.615 | 0.632 |  |  |  |  | 
20 | NCI-H2342 |  |  |  |  |  | 0.536 | 0.569 | 0.653 | 0.61 | 0.513 | 0.494 | 0.644 | 0.491 | 0.469 | 0.479 |  |  |  |  | 
21 | SW 900 |  |  |  |  |  | 0.649 | 0.874 | 0.75 | 0.113 | 0.247 | 0.49 | 0.584 | 0.459 | 0.515 | 0.44 |  |  |  |  | 
